Laboratory results from patent US20060159715A1, “Conjugate of fine porous particles with polymer molecules and the utilization thereof” (priority 2003, published 2006).

Details: L-DOPA added after three-hour incubation in phosphate buffer; FIG. 5
From the text: Hydroquinone was supported on conjugate in the same manner as in Example 4 except that hydroquinone was used in place of pyrene. Hydroquinone and clay particles-supported hydroquinone were examined for the resistance to the oxidation of L-DOPA.

Structure (SMILES): Oc1ccc(O)cc1 [hydroquinone, Hydroquinone]
- antioxidation property against L-DOPA oxidation: completely lost antioxidation property
